From US20170304178A1, “Peptides and Their Use in the Treatment of Skin” (AVON PRODUCTS, INC., priority 2014, published 2017) come the findings set out here.

Marks after values point to notes of the source that are not given here. Residues, ends and D or L forms follow the SMILES beside them.

Assay [1] has as its system human dermal fibroblast cells. The assay is described as follows: Secreted hyaluronic acid (HA) in media of human dermal fibroblasts (HA Elisa kit). It is filed as cell-based. Particulars: 48 h, percent change relative to vehicle control. On the procedure: (§1) Human dermal fibroblast cells were grown in a 96 well plate in DMEM media (available from Corning, N.Y.) supplemented with 10% Fetal Bovine Serum (FBS) and L-glutamine (0.07×10^5 cells/plate). After reaching about 75% confluence, cells were transferred into DMEM media without FBS and incubated for 4-6 hours. Next, cells were treated with peptides of Formulas I-V at 0.00001%, 0.0001%, 0.001% final concentration in DMEM media without FBS for 48 h. After treatment the media were collected, and cell viability was measured using MTT. The amount of secreted collagen was tested in the media using HTRF human pro-collagen I kit (Cisbio Inc, Bedford, Mass.). The amount of secreted Hyaluronic Acid (HA) was tested in the media using HA Elisa kit (available from Corgenix, Broomfield, Colo.).
(§2) Results are summarized in Table 1 below as percent change of pro-collagen I and HA production relative to vehicle control: […]

For assay [2], the system named is human dermal fibroblast cells. The assay is described as follows: Secreted pro-collagen I in media of human dermal fibroblasts (HTRF human pro-collagen I kit). It is filed as cell-based. Particulars: 48 h, percent change relative to vehicle control. On the procedure: as §1, §2

Regarding `CCC(C)C(N)C(=O)NC(Cc1ccccc1)C(=O)NCC(=O)NCC(=O)NC(C(=O)NC(C(=O)NC(Cc1ccc(O)cc1)C(=O)NC(CCCNC(=N)N)C(=O)NC(CO)C(=O)O)C(C)C)C(C)O` (stereo not drawn) [IFGGTVYRS (SEQ ID NO: 4), Ile-Phe-Gly-Gly-Thr-Val-Tyr-Arg-Ser] (H-IFGGTVYRS-OH; configuration not given here), the “Increase in HA Production” value in assay [1] (peptide concentration 0.001%) is listed as “+50-90%”. The “Increase in Pro-Collagen I Production” value in assay [2] (peptide concentration 0.001%) is “+10-30%”. `CC(C)CC(N)C(=O)NC(CCCNC(=N)N)C(=O)NC(CC(C)C)C(=O)NC(CCCCN)C(=O)O` (stereo not drawn) [LRLK (SEQ ID NO: 1), Leu-Arg-Leu-Lys] (H-LRLK-OH; configuration not given here): the “Increase in HA Production” value in assay [1] (peptide concentration 0.001%) is given as “+20-50%”. For `CSCCC(N)C(=O)NC(C(=O)NC(C(=O)O)C(C)C)C(C)C` (stereo not drawn) [MVV (SEQ ID NO: 2), Met-Val-Val] (H-Met-Val-Val-OH; configuration not given here), the “Increase in HA Production” value in assay [1] (peptide concentration 0.0001%) is given as “+20-50%”.

As to `CCC(C)C(NC(=O)C(CCCCN)NC(=O)C(NC(=O)C(NC(=O)C(N)CCCNC(=N)N)C(C)O)C1CCCN1)C(=O)NC(CO)C(=O)NC(CCCCN)C(=O)NC(C(=O)NC(C(=O)NC(CCCCN)C(=O)NC(Cc1ccccc1)C(=O)NC(CCC(=O)O)C(=O)NC(CC(C)C)C(=O)NC(CO)C(=O)NCC(=O)O)C(C)CC)C1CCCN1` (stereo not drawn) [RTPKISKPIKFELSG (SEQ ID NO: 5), Arg-Thr-Pro-Lys-Ile-Ser-Lys-Pro-Ile-Lys-Phe-Glu-Leu-Ser-Gly], the “Increase in HA Production” value in assay [1] (peptide concentration 0.001%) is recorded as “+20-50%”. On to `CC(NC(=O)CNC(=O)C(CC(=O)O)NC(=O)C(CCCCN)NC(=O)C(C)NC(=O)C(N)C(C)O)C(=O)NC(C(=O)O)C1CCCN1` (stereo not drawn) [TAKDGAP (SEQ ID NO: 3), Thr-Ala-Lys-Asp-Gly-Ala-Pro], for which the “Increase in HA Production” value in assay [1] (peptide concentration 0.001%) is recorded as “+50-90%”. Also, in assay [2] (peptide concentration 0.00001%), the “Increase in Pro-Collagen I Production” value is recorded as “+10-30%**”.
